Columns and labels:
[1] = biological target: T1, β-lactamase produced by Enterobacter cloacae IFO 12937 (Enterobacter cloacae, UniProt P05364); test: Inhibitor concentration required to inhibit β-lactamase (cephalosporinase) activity by 50%, micro-iodometric method; assay type: biochemical; conditions: Enterobacter cloacae IFO 12937 cephalosporinase; 0.05M phosphate buffer pH 7, 30° C., 10 minutes preincubation; cephalothin or ampicillin 0.1 mM; read-out: I50 (converted)
T1 construct: The β-lactamase produced by Enterobacter cloacae IFO 12937; endogenous in cells; host or cells: Enterobacter cloacae IFO 12937
Protocol: (§1) Determination of the inhibitor concentration required to inhibit the enzyme activity by 50%
(§2) The β-lactamase produced by Enterobacter cloacae IFO 12937 is used as a typical example of cephalosporinase, and that produced by Staphylococcus aureus 1840 as typical example of penicillinase. The β-lactamase in incubated is 0.05M phosphate buffer (pH 7) with an appropriate dilution of an inhibitor preparation at 30° C. for 10 minutes. Cephalothin or ampicillin is then added in an amount sufficient to produce a final concentration of 0.1 mM, and the enzymatic reaction is allowed to proceed for 10 minutes. The enzyme activity is determined by the micro-iodometric method [Journal of general Microbiology, vol. 33, page 121 (1963)]. Hereinafter, the inhibitor concentration required to inhibit the enzyme activity by 50% is expressed as I50. The I50 values for Enterobacter cloaceae are shown in Table 1, and the I50 values for Staphylococcus aureus in Table 2.

[2] = biological target: T2, β-lactamase produced by Staphylococcus aureus 1840 (Staphylococcus aureus, UniProt P00807); test: Inhibitor concentration required to inhibit β-lactamase (penicillinase) activity by 50%, micro-iodometric method; assay type: biochemical; conditions: Staphylococcus aureus 1840 penicillinase; 0.05M phosphate buffer pH 7, 30° C., 10 minutes preincubation; cephalothin or ampicillin 0.1 mM; read-out: I50 (converted)
T2 construct: endogenous in cells; host or cells: Staphylococcus aureus 1840
Protocol: as §1, §2

T1 sequence (P05364 21-381): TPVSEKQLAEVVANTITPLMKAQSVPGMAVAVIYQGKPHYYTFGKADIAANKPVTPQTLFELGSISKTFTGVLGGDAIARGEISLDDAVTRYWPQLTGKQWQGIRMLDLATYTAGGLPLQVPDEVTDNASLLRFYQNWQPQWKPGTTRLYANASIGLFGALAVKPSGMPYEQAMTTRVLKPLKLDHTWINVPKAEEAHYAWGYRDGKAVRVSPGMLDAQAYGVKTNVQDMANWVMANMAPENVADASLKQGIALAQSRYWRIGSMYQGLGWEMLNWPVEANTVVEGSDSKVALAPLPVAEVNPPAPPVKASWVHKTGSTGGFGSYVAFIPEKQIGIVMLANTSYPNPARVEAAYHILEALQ
T2 sequence (P00807 25-281): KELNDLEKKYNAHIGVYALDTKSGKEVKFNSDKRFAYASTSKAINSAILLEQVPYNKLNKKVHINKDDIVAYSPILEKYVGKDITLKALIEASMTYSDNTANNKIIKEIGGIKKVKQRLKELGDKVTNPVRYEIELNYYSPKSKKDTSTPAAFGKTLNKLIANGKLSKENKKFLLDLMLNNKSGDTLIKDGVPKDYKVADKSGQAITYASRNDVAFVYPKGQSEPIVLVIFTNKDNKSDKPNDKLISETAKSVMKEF

Row | SMILES | IC50 [1] [µM] | IC50 [2] [µM]
1 | COc1cccc(OC)c1C(=O)NC1CN(S(=O)(=O)O)C1=O (stereo not shown) | 7.1 | –
2 | CON=C(C(=O)NC1CN(S(=O)(=O)O)C1=O)c1nc(NC(=O)CCl)sc1Cl (stereo not shown) | 0.622 | –
3 | CON=C(C(=O)NC1CN(S(=O)(=O)O)C1=O)c1nc(N)sc1Cl (stereo not shown) | 2.96 | –
4 | Cc1ccc(SN=C(C(=O)NC2CN(S(=O)(=O)O)C2=O)c2ccccc2)cc1 (stereo not shown) | 1.25 | –
5 | CCN1CCN(C(=O)NC(C(=O)NC2CN(S(=O)(=O)O)C2=O)C2=C(Cl)CCCC2)C(=O)C1=O (stereo not shown) | 5.68 | –
6 | CC(C)ON=C(C(=O)NC1CN(S(=O)(=O)O)C1=O)c1csc(N)n1 (stereo not shown) | 0.0501 | –
7 | COC1(NC(=O)C(N=[N+]=[N-])c2ccccc2)CN(S(=O)(=O)O)C1=O (stereo not shown) | 0.954 | –
8 | COc1ccc(COC(=O)C(C(=O)NC2(OC)CN(S(=O)(=O)O)C2=O)c2ccc(O)cc2)cc1 (stereo not shown) | 0.387 | –
9 | O=C(NC1CN(S(=O)(=O)O)C1=O)C(=O)c1ccccc1 (stereo not shown) | – | 12.5
10 | O=C(NC1CN(S(=O)(=O)O)C1=O)C(Br)c1ccccc1 (stereo not shown) | – | 0.493
11 | [N-]=[N+]=NC(C(=O)NC1CN(S(=O)(=O)O)C1=O)c1ccccc1 (stereo not shown) | – | 0.144
12 | [N-]=[N+]=NC(C(=O)NC1CN(S(=O)(=O)O)C1=O)c1cccc(Cl)c1 (stereo not shown) | – | 0.147
13 | CCCCCCCCN1CCN(C(=O)N[C@@H](C(=O)NC2CN(S(=O)(=O)O)C2=O)c2cccs2)C(=O)C1=O (stereo partly drawn) [Compound 1, Sodium 3-[D-2-(4-n-octyl-2,3-dioxo-1-piperazinecarboxamido)-2-thienylacetamido]-2-oxoazetidine-1-sulfoante] | 5.02 | –
14 | CCCCCCCCN1CCN(C(=O)NC(C(=O)NC2(OC)CN(S(=O)(=O)O)C2=O)c2cccs2)C(=O)C1=O (stereo not shown) [Compound 2] | 0.0783 | –
15 | COC1(NC(=O)C(C(=O)OCc2ccccc2)c2ccccc2)CN(S(=O)(=O)O)C1=O (stereo not shown) [Compound 4] | 0.0892 | –
16 | COC1(NC(=O)C(C(=O)O)c2ccccc2)CN(S(=O)(=O)O)C1=O (stereo not shown) [Compound 5] | 0.391 | –
17 | CNC(=O)CC(NC(=O)OCc1ccccc1)C(=O)NC1(OC)CN(S(=O)(=O)O)C1=O (stereo not shown) [Compound 6] | 2.4 | –
18 | CCN1CCN(C(=O)N[C@H](Cc2ccccc2)C(=O)NC2(OC)CN(S(=O)(=O)O)C2=O)C(=O)C1=O (stereo partly shown) [Compound 7] | 2.15 | –
19 | COC1(NC(=O)[C@@H](C)NC(=O)OCc2ccccc2)CN(S(=O)(=O)O)C1=O (stereo partly shown) [Compound 8] | 7.97 | –
20 | CCN1CCN(C(=O)NC(C(=O)NC2CN(S(=O)(=O)O)C2=O)C2=CCCCC2)C(=O)C1=O (stereo not shown) [Compound 10] | 4.88 | –
21 | CCN1CCN(C(=O)NC(C(=O)NC2(OC)CN(S(=O)(=O)O)C2=O)c2ccccc2)C(=O)C1=O (stereo not shown) [Compound 11] | 0.523 | –
22 | CON=C(C(=O)NC1(OC)CN(S(=O)(=O)O)C1=O)c1csc(N)n1 (stereo not shown) [Compound 13] | 0.712 | –

Row | SMILES | IC50 [1] [µM] | IC50 [2] [µM]
23 | CON=C(C(=O)NC1(OC)CN(S(=O)(=O)O)C1=O)c1csc(NC(=O)CCl)n1 (stereo not shown) [Compound 14] | 0.658 | –
24 | O=C(NC1CN(S(=O)(=O)O)C1=O)C(OS(=O)(=O)O)c1ccccc1 (stereo not shown) [Compound 15] | 9.46 | –
25 | CON=C(C(=O)NC1CN(S(=O)(=O)O)C1=O)c1ccccc1 (stereo not shown) [Compound 16] | 15.3 | –
26 | COc1cccc(OC)c1C(=O)NC1(OC)CN(S(=O)(=O)O)C1=O (stereo not shown) [Compound 18] | 5 | –
27 | CC(C)ON=C(C(=O)NC1CN(S(=O)(=O)O)C1=O)c1csc(N)n1 (stereo not shown) [Compound 23] | 0.053 | –
28 | COC1(NC(=O)C(C)NC(=O)C(CS(=O)(=O)NS(=O)(=O)O)NC(=O)OCc2ccccc2)CN(S(=O)(=O)O)C1=O (stereo not shown) [Compound 24] | 1.2 | –
29 | COC1(NC(=O)OCc2ccccc2)CN(S(=O)(=O)O)C1=O (stereo not shown) [Compound 30, Sodium 3-benzyloxycarboxamido-3-methoxy-2-oxoazetidine-1-sulfonate] | 15.1 | –
30 | O=C(NC1CN(S(=O)(=O)O)C1=O)C(c1cccs1)N1C(=O)c2ccccc2C1=O (stereo not shown) [Compound 34, Sodium 3-(2-phthalimido-2-thienylacetamido)-2-oxoazetidine-1-sulfonate] | 0.873 | –
31 | COC1(NC(=O)C(=NOC(C)C)c2csc(N)n2)CN(S(=O)(=O)O)C1=O (stereo not shown) [Compound 36, Sodium 3-[2-(2-aminothiazol-4-yl)-2-(1-methylethoxyimino)actamido]-3-methoxy-2-oxoazetidine-1-sulfonate] | 0.0565 | –
32 | COC1(NC(=O)[C@H](NC(=O)N2CCN(C3CCCCC3)C(=O)C2=O)c2cccs2)CN(S(=O)(=O)O)C1=O (stereo partly drawn) [Compound 37, Sodium 3-[D-2-(4-cyclohexyl-2,3-dioxo-1-pipeadinecarboxamido)-2-thienylacetamido]-3-methoxy-2-oxoazetidine-1-sulfonate] | 0.215 | –
33 | COC1(NC(=O)[C@H](NC(=O)N2CCN(CC(=O)N3CCCCC3)C(=O)C2=O)c2cccs2)CN(S(=O)(=O)O)C1=O (stereo partly drawn) [Compound 38, Sodium 3-methoxy-3-[D-2-(4-piperidinecarbonylmethyl-2,3-dioxo-1-piperadinecarboxamido)-2-thienylacetamido]-2-oxoazetidine-1-sulfonate] | 0.13 | –
34 | COC1(NC(=O)[C@H](NC(=O)N2CCN(c3ccccc3)C(=O)C2=O)c2cccs2)CN(S(=O)(=O)O)C1=O (stereo partly drawn) [Compound 39, Sodium 3-methoxy-3-[D-2-(4-phenyl-2,3-dioxo-1-piperadinecarboxamido)-2-thienylacetamido]-2-oxoazetidine-1-sulfonate] | 0.127 | –
35 | COC1(NC(=O)[C@H](NC(=O)N2CCN(C(C)(C)C)C(=O)C2=O)c2cccs2)CN(S(=O)(=O)O)C1=O (stereo partly drawn) [Compound 40, Sodium 3-[D-2-(4-t-butyl-2,3-dioxo-1-piperadinecarboxamido)-2-thienylacetamido]-3-methoxy-2-oxoazetidine-1-sulfonate] | 0.124 | –
36 | COC1(NC(=O)[C@H](NC(=O)N2CCN(CC=C(C)C)C(=O)C2=O)c2cccs2)CN(S(=O)(=O)O)C1=O (stereo partly drawn) [Compound 41, Sodium 3-[D-2-[4-(3-methyl-2-butenyl)-2,3-dioxo-1-piperadinecarboxamido]-2-thienylacetamido]-3-methoxy-2-oxoazetidine-1-sulfonate] | 0.12 | –
37 | CC(C)(ON=C(C(=O)NC1CN(S(=O)(=O)O)C1=O)c1csc(NC(c2ccccc2)(c2ccccc2)c2ccccc2)n1)C(=O)O (stereo not shown) [Compound 43, Disodium 3-[2-[(1-carboxy-1-methylethoxy)imino]-2-(2-tritylaminothiazol-4-yl)acetamido]-2-oxoazetidine-1-sulfonate] | 4.82 | –
38 | CCN1C(=O)C(=O)N(C(=O)N[C@@H](C(=O)NC2CN(S(=O)(=O)O)C2=O)c2cccs2)C[C@@H]1C (stereo partly drawn) [Compound 44, Sodium 3-[D-2-(4-ethyl-5(S)-methyl-2,3-dioxo-2,3-dioxo-1-piperazinecarboxamido)-2-thienylacetamido]-2-oxoazetidine-1-sulfonate] | – | 2.46
39 | O=C(NC1CN(S(=O)(=O)O)C1=O)[C@H](NC(=O)N1CCNC1=O)c1cccs1 (stereo partly drawn) [Compound 45, Sodium 3-[D-2-[(2-oxoimidazolidin-1-yl)carboxamido]-2-thienylacetamido]-2-oxoazetidine-1-sulfonate] | – | 5.75
40 | O=C(CSc1c(Cl)cccc1Cl)N[C@@H](C(=O)NC1CN(S(=O)(=O)O)C1=O)c1ccccc1 (stereo partly shown) [Compound 46] | – | 9.65
41 | Nc1nc(CC(=O)N[C@@H](C(=O)NC2CN(S(=O)(=O)O)C2=O)c2ccccc2)cs1 (stereo partly shown) [Compound 47] | – | 11.4
42 | O=C(NC(CS(=O)(=O)NC1CN(S(=O)(=O)O)C1=O)C(=O)OCc1ccccc1)OCc1ccccc1 (stereo not shown) [Compound 48] | – | 3.14
43 | CS(=O)(=O)NC1CN(S(=O)(=O)O)C1=O (stereo not shown) [Compound 52] | – | 14.3

Source: patent US4725591A, “β-lactamase inhibitory composition” (Takeda Chemical Industries, Ltd., priority 1980, dated 1988)
